{"source": "patent US20180008629A1", "about": "“Compositions and Methods for Treating NLRP3 Inflammasome-Related Diseases and Disorders” (priority 2015, published 2018)", "key": {"NLRP3 inflammasome": {"biological_target": "NLRP3 inflammasome (Mus musculus, UniProt Q8R4B8)", "sequence (Q8R4B8 whole entry)": "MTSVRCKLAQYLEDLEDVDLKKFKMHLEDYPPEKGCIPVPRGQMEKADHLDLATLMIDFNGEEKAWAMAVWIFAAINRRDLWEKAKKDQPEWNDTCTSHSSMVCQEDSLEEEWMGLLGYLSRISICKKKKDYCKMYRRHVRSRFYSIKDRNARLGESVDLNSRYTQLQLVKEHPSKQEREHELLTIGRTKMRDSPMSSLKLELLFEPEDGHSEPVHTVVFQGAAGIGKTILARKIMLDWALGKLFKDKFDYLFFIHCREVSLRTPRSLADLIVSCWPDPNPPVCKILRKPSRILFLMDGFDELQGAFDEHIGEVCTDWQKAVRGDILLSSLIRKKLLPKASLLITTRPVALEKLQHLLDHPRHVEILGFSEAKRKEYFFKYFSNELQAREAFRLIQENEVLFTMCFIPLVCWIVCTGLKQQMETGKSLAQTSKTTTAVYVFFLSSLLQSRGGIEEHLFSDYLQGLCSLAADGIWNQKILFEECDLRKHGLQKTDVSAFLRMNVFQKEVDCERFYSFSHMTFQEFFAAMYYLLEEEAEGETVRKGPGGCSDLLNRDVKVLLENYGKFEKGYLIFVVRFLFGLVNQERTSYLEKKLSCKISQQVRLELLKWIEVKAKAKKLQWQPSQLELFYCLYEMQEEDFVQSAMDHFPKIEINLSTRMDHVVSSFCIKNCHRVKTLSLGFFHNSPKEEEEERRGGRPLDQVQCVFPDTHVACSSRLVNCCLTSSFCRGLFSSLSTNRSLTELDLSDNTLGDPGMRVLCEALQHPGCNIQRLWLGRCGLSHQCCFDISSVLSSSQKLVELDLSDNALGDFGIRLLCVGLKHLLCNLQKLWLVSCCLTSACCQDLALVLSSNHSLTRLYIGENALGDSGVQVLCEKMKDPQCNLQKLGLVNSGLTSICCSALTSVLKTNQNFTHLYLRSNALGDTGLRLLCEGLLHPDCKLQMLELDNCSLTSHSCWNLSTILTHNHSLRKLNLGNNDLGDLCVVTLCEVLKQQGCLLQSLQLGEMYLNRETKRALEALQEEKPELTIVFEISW", "test": "NLRP3 inflammasome activation in LPS primed BMDMs (caspase-1 / IL-1β immunoblot)", "type": "cell-based", "set-up": "endogenous in cells; host or cells: mouse bone marrow derived macrophages (A1)", "details": "for ATP-induced NLRP3 activation: BMDMs stimulated with LPS and ATP, caspase-1 immunoblot (FIG. 1B); for effect on BHB's suppressive effects on ATP-induced NLRP3 inflammasome activation: co-treatment with BHB; for induction of caspase-1 cleavage by ROS damage: rotenone (10 μM) or hydrogen peroxide", "method": "All steps were performed using sterile technique. Femurs were collected in RPMI (Life Technologies, Grand Island, N.Y.)+5% FBS (R5; Omega Scientific, Tarzana, Calif.). Both ends of the femur were then cut and the femur was flushed with R5. The bone marrow was centrifuge at 450 g for 5 min, the supernatant was decanted and red blood cells were lysed using ACK lysis buffer (Quality Biological, Gaithersburg, Md.). After neutralization with R5, bone marrow cells were centrifuged, resuspended in 10 ml of R5 and placed into a 6 well plate. Non-adherent cells were collected the following morning. The non-adherent cells were resuspended at 4×10^6 cells/ml in media consisting of 10 ml supernatant of non-adherent cells, 7.2 ml L929 conditioned media, 6.8 ml R5 and MCSF (long/ml; R&D Systems, Minneapolis, Minn.). An additional 2 ml of fresh media was added 4 d after isolation. Non-adherent cells were collected on day 7, separated by density gradient separation using Fico/Lite (Atlanta Biologicals, Flowery Branch, Ga.) and mononuclear cells were collected. Cells were rinsed twice with Dulbecco's PBS+2% FBS, and resuspended at 1×10^6 cells/ml. Cells were treated with ultrapure LPS (Invivogen, San Diego, Calif.) alone or in combination with 5 mM ATP (Sigma, St. Louis, Mo.) or 200 μM palmitate-BSA (Sigma). The BMDMs were also primed with ultrapure lipid A (10 μg/ml; Invivogen, San Diego, Calif.), lipoteichoic acid (10 μg/ml; Invivogen), or Pam3-CSK4 (10 μg/ml; Invivogen) for 4 hour and stimulated with various NLRP3 activators (ATP 5 mM; Sigma, MSU 250 ug/ml; Invivogen, Silica; 200 ug/ml; Invivogen, sodium palmitate; 200 μM; Sigma, ceramide C6 80 μg/ml; Cayman, and sphingosine 40 μM; Cayman, Ann Arbor, Mich.) for 1 hour together with D-BHB or L-(BHB) at indicated concentration. The cell supernatants and cell lysates were collected 1 h after BHB treatment and analyzed for caspase-1 and IL-1β.\nThe BMDM cell lysates were prepared using RIPA buffer and immediately snap frozen in liquid nitrogen. Samples were left on ice for 1 hour with vortexing every 10 min. Samples were then centrifuge at 14,000 g for 15 min, the supernatant was collected and the protein concentration was determined using the DC Protein Assay (Bio-RAD). […] The immune complexes were visualized by incubation with horseradish peroxidase-conjugated anti-rat or anti-rabbit secondary antibody (Amersham Biosciences). Immunoreactive bands were visualized by enhanced chemiluminescence (PerkinElmer Life Sciences)."}, "Gpr109a": {"test_system": "Gpr109a", "details": "Taggart et al., 2005; cited from earlier work"}, "[1]": {"details": "WT and Gpr109a−/− BMDMs stimulated with LPS and ATP"}}}
{"smiles": "CC(=O)O", "note": "[acetate, reference compound]", "values": [{"measurement": "ATP-induced NLRP3 activation", "setting": "NLRP3 inflammasome; 10 mM", "value": "did not affect"}]}
{"smiles": "CC(/C=C/C(=O)NO)=C\\[C@@H](C)C(=O)c1ccc(N(C)C)cc1", "note": "[trichostatin A, reference compound]", "values": [{"measurement": "inflammasome activation with HDAC inhibitor", "setting": "NLRP3 inflammasome; LPS primed and NLRP3 agonist treated macrophages, TSA (50 nM)", "value": "no effects"}]}
{"smiles": "N#C/C(=C\\c1ccc(-c2cc(Cl)ccc2Cl)o1)C(=O)Nc1cccc2ncccc12", "note": "[AGK2, reference compound]", "values": [{"measurement": "effect on BHB's suppressive effects on ATP-induced NLRP3 inflammasome activation", "setting": "NLRP3 inflammasome; LPS primed BMDMs, ATP", "value": "did not abrogate"}]}
{"smiles": "C=C(C)[C@H]1Cc2c(ccc3c2O[C@@H]2COc4cc(OC)c(OC)cc4[C@@H]2C3=O)O1", "note": "[rotenone, reference compound]", "values": [{"measurement": "effect on BHB's suppressive effects on ATP-induced NLRP3 inflammasome activation", "setting": "NLRP3 inflammasome; LPS primed BMDMs, ATP", "value": "did not prevent"}, {"measurement": "induction of caspase-1 cleavage by ROS damage", "setting": "NLRP3 inflammasome; LPS primed BMDMs", "value": "not sufficient to induce"}]}
{"smiles": "Cn1cnc(N)c2ncnc1-2", "note": "[3-methyladenine, reference compound]", "values": [{"measurement": "effect on BHB's suppressive effects on ATP-induced NLRP3 inflammasome activation", "setting": "NLRP3 inflammasome; LPS primed BMDMs, ATP", "value": "did not abrogate"}]}
{"smiles": "CC[C@H](C)[C@H](NC(=O)[C@H]([C@@H](C)CC)N(C)C(C)=O)C(=O)N[C@H](C(=O)N[C@@H](CC(C)C)C(=O)[C@@]1(C)CO1)[C@@H](C)O", "note": "[epoxomicin, reference compound]", "values": [{"measurement": "effect on BHB's suppressive effects on ATP-induced NLRP3 inflammasome activation", "setting": "NLRP3 inflammasome; LPS primed BMDMs, ATP", "value": "did not abrogate"}]}
{"smiles": "O=C(O)c1cccnc1", "note": "[niacin, reference compound]", "values": [{"measurement": "NLRP3 inflammasome activation with GPR109a ligand", "setting": "NLRP3 inflammasome; BMDMs activated with LPS and ATP, niacin (1 mM)", "value": "did not block"}]}
{"smiles": "C[C@H](O)CC(=O)O", "note": "[(S)-BHB, (S)-3-hydroxybutyric acid]", "values": [{"measurement": "NLRP3 inflammasome activation (Nlrp3 induced caspase-1 activation)", "setting": "NLRP3 inflammasome; BMDMs (FIG. 6E)", "value": "efficiently blocked"}, {"measurement": "anti-inflammasome activity", "setting": "NLRP3 inflammasome; [1]", "value": "retains anti-inflammasome activity similar to bioactive D-(BHB)"}, {"measurement": "requirement of Gpr109a to block NLRP3", "setting": "NLRP3 inflammasome; [1]", "value": "does not require"}, {"measurement": "binding to Gpr109a", "setting": "Gpr109a", "value": "high affinity"}]}
{"smiles": "NC(=O)c1ccc[n+]([C@@H]2O[C@H](COP(=O)([O-])OP(=O)(O)OC[C@H]3O[C@@H](n4cnc5c(N)ncnc54)[C@H](O)[C@@H]3O)[C@@H](O)[C@H]2O)c1", "note": "[NAD^+, reference compound]", "values": [{"measurement": "caspase-1 activation in response to LPS and ATP", "setting": "NLRP3 inflammasome; BMDMs, NAD+ (10 μM)", "value": "did not block"}]}
{"smiles": "OO", "note": "[hydrogen peroxide, reference compound]", "values": [{"measurement": "effect on BHB's suppressive effects on ATP-induced NLRP3 inflammasome activation", "setting": "NLRP3 inflammasome; LPS primed BMDMs, ATP", "value": "did not prevent"}, {"measurement": "induction of caspase-1 cleavage by ROS damage", "setting": "NLRP3 inflammasome; LPS primed BMDMs", "value": "not sufficient to induce"}]}
{"smiles": "NOCC(=O)O", "note": "[aminoxyacetate, reference compound]", "values": [{"measurement": "effect on BHB's suppressive effects on ATP-induced NLRP3 inflammasome activation", "setting": "NLRP3 inflammasome; LPS primed BMDMs, ATP", "value": "did not affect"}]}
{"smiles": "CC(=O)CC(=O)O", "note": "[acetoacetate, reference compound]", "values": [{"measurement": "ATP-induced NLRP3 activation", "setting": "NLRP3 inflammasome; 10 mM", "value": "did not affect"}, {"measurement": "effect on the NLRP3 inflammasome", "setting": "NLRP3 inflammasome; control and Gpr109a deficient BMDMs, LPS and ATP, 10 mM", "value": "neither butyrate nor acetoacetate affect"}]}
{"smiles": "O=CC[C@@H](O)[C@H](O)[C@H](O)CO", "note": "[2DG, 2-deoxyglucose, reference compound]", "values": [{"measurement": "mimicking of BHB's anti-inflammasome effect by inhibition of glycolysis", "setting": "NLRP3 inflammasome; LPS primed BMDMs, ATP, 2-deoxyglucose (1 mM)", "value": "did not mimic"}]}
